Measured values published in patent US5045548A, “Quinolyl methoxy compounds and their use as antiasthmatic agents” (Fujisawa Pharmaceutical Company, Ltd., priority 1987, dated 1991).
pIC50: −log10 of the molar value. Counter-ions that a name gives are not always drawn.

System: SRS-A (Slow Reacting Substance of Anaphylaxis) synthesis in rat polymorpholeukocyte (PMN)
Assay: Inhibitory Activity of SRS-A synthesis in rat polymorpholeukocyte (PMN) using the calcium ionophore A23187 (i-LTC4 by radioimmunoassay)
Format: cell-based, rat (male Sprague-Dawley)
Details: 10 μM A23187, 15 min, 37° C., hydrochloride
Experimental: Test I: Inhibitory Activity of SRS-A (Slow Reacting Substance of Anaphylaxis) synthesis in rat polymorpholeukocyte (PMN) of using the calcium ionophore Male Sprague-Dawley rats weighing 250-300 g were anesthetized with ether and each was injected intraperitoneally with 20 ml of 0.1% clycogen (from Oyster). After 20 hours the rats were sacrificed and PMN were recovered in rinse of the peritoneal cavity with 10 ml Dulbeccos PBS (components in g/L: CaCl2 0.1, KH2 PO4 0.2, MgCl2.6H2 O 0.1, NaCl 8.0, Na2 HPO4.7H2 O 2.16; pH7.4). These rinses were filtered through nylon wool filter and centrifuged for 5 min at 1000 xg. The pellet was suspended in Dulbeccos PBS and centrifuged for 5 min at 1000 xg. The pellet was resuspended in Dulbeccos PBS and adjusted the cell concentration to 10^7 cells/ml with Dulbeccos PBS. Samples were dissolved in ethanol and dispersed in Dulbeccos PBS to give a concentration of 10^-10 -10^-5 M Antibiotic A23187; calcium ionophor ([…] Diagnostics) (hereinafter referred to A23187) in DMSO(10mM) was diluted with Dulbeccos PBS to give the concentration of 1 mM. Aliquots of the cell suspension (1×10^7 cells/ml, 0.98 ml) were equilibrated for 30 min at 37° C. Solution of sample(10 μl) was added and incubated for 15 min at 37° C. before the addition of 10 μl of A23187 solution. Thus the final incubation volume of 1 ml contained approximately 1×10^7 cells, 10^-10 -10^-5 M samples and 10 μM A23187. Incubation with A23187 were continued for 15 min at 37° C. The reactions were terminated by setting the assay tubes in ice bath to chill as rapidly as possible to 4° C. The test tubes were centrifuged at 1500 xg for 5 min at 4° C. and decanted the supernatants into the tubes and kept cold prior to assaying. The concentration of i-LTC4 in the cell-free supernatants from the incubations were determined by specific radioimmunoassay. The mean values of i-LTC4 (these incubations were carried out in duplicate) of each sample were calculated and the effect of samples on the synthesis of the leukotrienes was presented as a percentage of the value in the absence of samples.

Compound CCCCC1(CCCC)CCc2c(OCc3ccc4ccccc4n3)cccc2C1O (single isomer, unassigned; (+)) [Example 41, (+)-2,2-dibutyl-5-(2-quinolylmethoxy)-1,2,3,4-tetrahydro-1-naphthol hydrochloride] has a pIC50 of 8.25.

Same assay, conditions: Rattus norvegicus, 0.25 h, 10 μM A23187, 15 min, 37° C.

Compared with CCCCC1(CCCC)Cc2c(OCc3ccc4ccccc4n3)cccc2C1=O [Example 5, 2,2-Dibutyl-4-(2-quinolylmethoxy)-1-indanone hydrochloride], CCCCC1(CCCC)CCc2c(OCc3ccc4ccccc4n3)cccc2C1=O [Example 25, 2,2-Dibutyl-3,4-dihydro-5-(2-quinolylmethoxy)-(1(2H)-naphthalenone hydrochloride] is 0.34 log units lower in pIC50: 6.55 for the first, 6.21 for the second.

Going from CCCCC1(CCCC)CCc2c(OCc3ccc4ccccc4n3)cccc2C1O (stereo not drawn) [Example 6, 2,2-dibutyl-5-(2-quinolylmethoxy)-1,2,3,4-tetrahydro-1-naphthol] to CCCCCC1(CCCCC)CCc2c(OCc3ccc4ccccc4n3)cccc2C1O (stereo not drawn) [Example 14, 2,2-Dipentyl-5-(2-quinolylmethoxy)-1,2,3,4-tetrahydro-1-naphthol], the pIC50 falls from 8.06 to 7.38 (0.68 log units).

CCCCC1(CCCC)CCc2c(OCc3ccccn3)cccc2C1O (stereo not drawn) [Example 7, 2,2-dibutyl-5-(2-pyridylmethoxy)-1,2,3,4-tetrahydro-1-naphthol] and CCCCC1(CCCC)CCc2c(OCc3ccncc3)cccc2C1O (stereo not drawn) [Example 12, 2,2-Dibutyl-5-(4-pyridylmethoxy)-1,2,3,4-tetrahydro-1-naphthol] are within 0.2 log units of each other in pIC50: 7.09 for the first, 6.92 for the second.

Going from CCCCC1(CCCC)CCc2c(OCc3ccccc3C(N)=O)cccc2C1O (stereo not drawn) [Example 8, 2,2-dibutyl-5-(2-carbamoylbenzyloxy)-1,2,3,4-tetrahydro-1-naphthol] to CCCCC1(CCCC)CCc2c(OCc3ccc(C(N)=O)cc3)cccc2C1O (stereo not drawn) [Example 16, 2,2-Dibutyl-5-(4-carbamoylbenzyloxy)-1,2,3,4-tetrahydro-1-naphthol], the pIC50 falls from 6.80 to 6.43 (0.37 log units).

Going from CCCCC1(CCCC)CCc2c(OCc3nc4ccccc4s3)cccc2C1O (stereo not drawn) [Example 11, 2,2-Dibutyl-5-(2-benzothiazolylmethoxy)-1,2,3,4-tetrahydro-1-naphthol] to CCCCC1(CCCC)CCc2c(OCc3nc4ccccc4n3C)cccc2C1O (stereo not drawn) [Example 26, 2,2-Dibutyl-5-[2-(1-methylbenzimidazolyl)methoxy]-1,2,3,4-tetrahydro-1-naphthol], the pIC50 falls from 7.30 to 6.68 (0.62 log units).

Compared with CCCC1(CCC)CCc2c(OCc3ccc4ccccc4n3)cccc2C1O (stereo not drawn) [Example 13, 2,2-Dipropyl-5-(2-quinolylmethoxy)-1,2,3,4-tetrahydro-1-naphthol], CCCCC1(CCCC)Cc2c(OCc3ccc4ccccc4n3)cccc2C1O (stereo not drawn) [Example 15, 2,2-Dibutyl-4-(2-quinolylmethoxy)-1-indanol] is 1.14 log units lower in pIC50: 7.82 for the first, 6.68 for the second.

First: CCCCC1CCc2c(OCc3ccc4ccccc4n3)cccc2C1=O (stereo not drawn) [Example 17, 2-Butyl-3,4-dihydro-5-(2-quinolylmethoxy)-1(2H)-naphthalenone]
Second: CCCCC1CCc2ccc(OCc3ccc4ccccc4n3)cc2C1=O (stereo not drawn) [Example 23, 2-Butyl-3,4-dihydro-7-(2-quinolylmethoxy)-1(2H)-naphthalenone hydrochloride]
The pIC50 of the first is 0.24 log units lower: 5.72 for the first, 5.96 for the second.

CCCCC1(CCCC)CCc2ccc(OCc3ccc4ccccc4n3)cc2C1=O [Example 19, 2,2-Dibutyl-3,4-dihydro-7-(2-quinolylmethoxy)-1(2H)-naphthalenone] and CCCCC1(CCCC)CCc2ccc(OCc3ccc4ccccc4n3)cc2C1O (stereo not drawn) [Example 22, 2,2-Dibutyl-7-(2-quinolylmethoxy)-1,2,3,4-tetrahydro-1-naphthol hydrochloride] are within 0.2 log units of each other in pIC50: 5.96 for the first, 6.07 for the second.

Going from CCCCC1CCc2c(OCc3ccc4ccccc4n3)cccc2C1O (stereo not drawn) [Example 20, 2-Butyl-5-(2-quinolylmethoxy)-1,2,3,4-tetrahydro-1-naphthol] to CCCCC1CCc2ccc(OCc3ccc4ccccc4n3)cc2C1O (stereo not drawn) [Example 21, 2-butyl-7-(2-quinolylmethoxy)-1,2,3,4-tetrahydro-1-naphthol hydrochloride], the pIC50 falls from 7.08 to 6.37 (0.71 log units).

Going from CCCCC1(CCCC)CCc2c(OCC3=C(C)C(=O)c4ccccc4C3=O)cccc2C1O (stereo not drawn) [Example 27, 2,2-Dibutyl-5-[2-(3-methyl-1,4-naphthalenedionyl)methoxy]-1,2,3,4-tetrahydro-1-naphthol] to CCCCC1(CCCC)CCc2c(OCc3ccc4ccccc4n3)ccc(C)c2C1O (stereo not drawn) [Example 35, 2,2-Dibutyl-8-methyl-5-(2-quinolylmethoxy)-1,2,3,4-tetrahydro-1-naphthol], the pIC50 rises from 6.52 to 8.19 (1.67 log units). The second is the more potent here.

Going from CCCCC1(CCCC)CCc2c(OCc3ccc4ccccc4n3)ccc(Cl)c2C1O (stereo not drawn) [Example 33, 8-chloro-2,2-dibutyl-5-(2-quinolylmethoxy)-1,2,3,4-tetrahydro-1-naphthol] to CCCCC1(CCCC)CCc2c(OCc3ccc4ccccc4n3)ccc(F)c2C1O (stereo not drawn) [Example 34, 2,2-Dibutyl-8-fluoro-5-(2-quinolylmethoxy)-1,2,3,4-tetrahydro-1-naphthol], the pIC50 rises from 7.85 to 8.66 (0.81 log units).

Going from CCCCC1(CCCC)CCc2c(OCc3ccc4ccccc4n3)ccc(O)c2C1O (stereo not drawn) [Example 36, 2,2-Dibutyl-8-hydroxy-5-(2-quinolylmethoxy)-1,2,3,4-tetrahydro-1-naphthol hydrochloride] to CCCCC1(CCCC)CCc2c(OCc3ccc4ccccc4n3)ccc(O)c2C1=O [Example 38, 2,2-Dibutyl-3,4-dihydro-8-hydroxy-5-(2-quinolylmethoxy)-1(2H)-naphthalenonehydrochloride], the pIC50 falls from 6.92 to 6.44 (0.48 log units).

First: CC(C)CC1(CC(C)C)CCc2c(OCc3ccc4ccccc4n3)cccc2C1O (stereo not drawn) [Example 37, 2,2-Diisobutyl-5-(2-quinolylmethoxy)-1,2,3,4-tetrahydro-1-naphthol]
Second: CCCCC1(CCCC)CCc2c(OCc3ccc4ccccc4n3)ccc(C)c2C1=O [Example 39]
The pIC50 of the first is 2.41 log units higher: 8.60 for the first, 6.19 for the second. The first is the more potent here.
